Measurements: patent publication US20240067668A1, “HETEROARYL DERIVATIVE COMPOUND AND USE THEREOF” (VORONOI INC., priority 2020, published 2024)

What was measured:
EGFR Del19/T790M/C797S = EGFR Del19/T790M/C797S (Homo sapiens, UniProt P00533, C797S/T790M, form not given); assay: Enzyme IC50, EGFR Del19/T790M/C797S; format: biochemical
[1] = system: BaF3-EGFR (Del19/T790M/C797S) cells; assay: Inhibitory activity on Ba/F3 cell proliferation (CellTiter-Glo, 72 hours); format: cell-based; conditions: Ba/F3 cells expressing EGFR Del19/T790M/C797S
Procedure, shortened: (§1)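 Ba/F3 cells expressing wild-type EGFR or EGFR Del19/T790M/C797S, 3×10^3 per well, exposed 72 h at 37 °C to compound at 12 threefold dilutions, 0.00005-10 μM final. Viability by CellTiter-Glo 2.0; GI50 derived from growth relative to DMSO-treated cells.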

BaF3-EGFR (WT) cells = assay: as above; format: cell-based; conditions: Ba/F3 cells expressing EGFR WT
Procedure, shortened: as §1

EGFR Del19/T790M/C797S, sequence (P00533 25-1210 T790M/C797S, form open): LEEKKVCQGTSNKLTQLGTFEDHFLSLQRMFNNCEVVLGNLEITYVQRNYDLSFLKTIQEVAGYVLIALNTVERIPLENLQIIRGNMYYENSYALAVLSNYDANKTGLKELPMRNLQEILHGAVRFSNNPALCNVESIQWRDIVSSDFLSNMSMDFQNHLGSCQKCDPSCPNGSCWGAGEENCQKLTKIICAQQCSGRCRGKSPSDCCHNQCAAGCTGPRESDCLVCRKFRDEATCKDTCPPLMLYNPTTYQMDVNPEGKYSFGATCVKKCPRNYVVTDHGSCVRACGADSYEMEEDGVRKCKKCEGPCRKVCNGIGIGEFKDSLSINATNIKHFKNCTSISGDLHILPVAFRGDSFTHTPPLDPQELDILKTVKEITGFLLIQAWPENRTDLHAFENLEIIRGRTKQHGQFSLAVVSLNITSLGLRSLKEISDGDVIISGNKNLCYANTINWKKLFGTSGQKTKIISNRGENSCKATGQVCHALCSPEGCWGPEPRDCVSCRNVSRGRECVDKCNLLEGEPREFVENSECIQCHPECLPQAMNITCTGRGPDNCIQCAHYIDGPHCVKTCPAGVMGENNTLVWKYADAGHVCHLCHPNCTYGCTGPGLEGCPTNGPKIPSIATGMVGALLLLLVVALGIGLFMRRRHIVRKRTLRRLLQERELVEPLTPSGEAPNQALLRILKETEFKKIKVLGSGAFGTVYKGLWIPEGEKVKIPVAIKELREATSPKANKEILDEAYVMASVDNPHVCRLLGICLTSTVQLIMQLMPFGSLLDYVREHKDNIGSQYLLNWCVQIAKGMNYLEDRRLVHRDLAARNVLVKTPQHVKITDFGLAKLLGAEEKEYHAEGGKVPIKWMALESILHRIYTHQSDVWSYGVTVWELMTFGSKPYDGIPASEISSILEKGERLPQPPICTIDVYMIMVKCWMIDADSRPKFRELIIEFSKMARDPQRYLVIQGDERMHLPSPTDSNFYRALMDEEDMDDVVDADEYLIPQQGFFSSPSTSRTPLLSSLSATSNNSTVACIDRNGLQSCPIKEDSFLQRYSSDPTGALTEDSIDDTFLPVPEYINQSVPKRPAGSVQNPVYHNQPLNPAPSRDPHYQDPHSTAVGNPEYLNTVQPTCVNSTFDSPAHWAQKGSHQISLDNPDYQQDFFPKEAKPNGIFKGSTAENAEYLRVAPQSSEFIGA

IC50 (EGFR Del19/T790M/C797S)	GI50 [1]	GI50 (BaF3-EGFR (WT) cells)	Compound
≤ 0.05 µM	≤ 0.05 µM	> 0.1 µM	COc1cc(N2CCC(N3CCN(C4CC4)CC3)CC2)c(C)cc1Nc1nc(Nc2ccc3nccnc3c2P(C)(C)=O)c2cc[nH]c2n1 [Example 60, (6-((2-((4-(4-(4-cyclopropyl-piperazin-1-yl)piperidin-1-yl)-2-methoxy-5-methylphenyl)amino)-7H-pyrrolo[2,3-d]pyrimidin-4-yl)amino)quinoxalin-5-yl)dimethyl-phosphine oxide]
≤ 0.05 µM	≤ 0.05 µM	0.05 to 0.1 µM	Cn1cc(-c2cc(Nc3nc(Nc4ccc5nccnc5c4P(C)(C)=O)c4cc[nH]c4n3)c3c(c2N2CCC(N4CCOCC4)CC2)CCO3)cn1 [Example 120, dimethyl (6-((2-((5-(1-methyl-1H-pyrazol-4-yl)-4-(4-morpholino-piperidin-1-yl)-2,3-dihydrobenzo-furan-7-yl)amino)-7H-pyrrolo[2,3-d]pyrimidin-4-yl)amino)quinoxalin-5-yl)phosphine oxide]
≤ 0.05 µM	≤ 0.05 µM	> 0.1 µM	COc1cc(N2CCN(C3CCCC3)CC2)c(-c2cnn(C)c2)cc1Nc1nc(Nc2ccc3nccnc3c2P(C)(C)=O)c2cc[nH]c2n1 [Example 22, (6-((2-((4-(4-cyclopentyl-piperazin-1-yl)-2-methoxy-5-(1-methyl-1H-pyrazol-4-yl)phenyl)amino)-7H-pyrrolo[2,3-d]pyrimidin-4-yl)amino)quinoxalin-5-yl) dimethyl-phosphine oxide]
≤ 0.05 µM	≤ 0.05 µM	> 0.1 µM	COc1cc(N2C[C@H]3C[C@@H]2CO3)c(-c2cnn(C)c2)cc1Nc1nc(Nc2ccc3nccnc3c2P(C)(C)=O)c2cc[nH]c2n1 [Example 27]
≤ 0.05 µM	≤ 0.05 µM	> 0.1 µM	Cn1cc(-c2cc(Nc3nc(Nc4ccc5nccnc5c4P(C)(C)=O)c4cc[nH]c4n3)ccc2N2CCOCC2)cn1 [Example 34, dimethyl (6-((2-((3-(1-methyl-1H-pyrazol-4-yl)-4-morpholino-phenyl)amino)-7H-pyrrolo[2,3-d]pyrimidin-4-yl)amino)quinoxalin-5-yl)phosphine oxide]
> 0.1 µM	> 0.1 µM	> 0.1 µM	CCOc1ccc(C(F)(F)F)cc1Nc1nc(Nc2ccc3nccnc3c2P(C)(C)=O)c2cc[nH]c2n1 [Example 69, (6-((2-((2-ethoxy-5-(trifluoromethyl)phenyl)amino)-7H-pyrrolo[2,3-d]pyrimidin-4-yl)amino)quinoxalin-5-yl)dimethyl-phosphine oxide]
≤ 0.05 µM	> 0.1 µM	> 0.1 µM	COc1cc(N2CCN(C)CC2)c(-c2ccccc2)cc1Nc1nc(Nc2ccc3nccnc3c2P(C)(C)=O)c2cc[nH]c2n1 [Example 72, (6-((2-((4-methoxy-6-(4-methylpiperazin-1-yl)-[1,1′-biphenyl]-3-yl)amino)-7H-pyrrolo[2,3-d]pyrimidin-4-yl)amino)quinoxalin-5-yl)dimethyl-phosphine oxide]
≤ 0.05 µM	0.05 to 0.1 µM	> 0.1 µM	COc1cc(N2CCC(N3CCN(C(C)C)CC3)CC2)c(C)cc1Nc1nc(Nc2ccc3nccnc3c2P(C)(C)=O)c2cc[nH]c2n1 [Example 62, (6-((2-((4-(4-(4-isopropyl-piperazin-1-yl)piperidin-1-yl)-2-methoxy-5-methylphenyl)amino)-7H-pyrrolo[2,3-d]pyrimidin-4-yl)amino)quinoxalin-5-yl)dimethyl-phosphine oxide]
≤ 0.05 µM	≤ 0.05 µM	> 0.1 µM	COc1ccc(-c2cnn(C)c2)cc1Nc1nc(Nc2ccc3nccnc3c2P(C)(C)=O)c2cc[nH]c2n1 [Example 28, (6-((2-((2-methoxy-5-(1-methyl-1H-pyrazol-4-yl)phenyl)amino)-7H-pyrrolo[2,3-d]pyrimidin-4-yl)amino)quinoxalin-5-yl)dimethyl-phosphine oxide]
≤ 0.05 µM	> 0.1 µM	> 0.1 µM	COc1cc(N2CCN(C)CC2)c(C#N)cc1Nc1nc(Nc2ccc3nccnc3c2P(C)(C)=O)c2cc[nH]c2n1 [Example 81, 5-((4-((5-(dimethyl-phosphoryl)quinoxalin-6-yl)amino)-7H-pyrrolo[2,3-d]pyrimidin-2-yl)amino)-4-methoxy-2-(4-methylpiperazin-1-yl)benzonitrile]
≤ 0.05 µM	> 0.1 µM	> 0.1 µM	COc1cc(N2CCN(C)CC2)c(-c2cnn(C)c2)cc1Nc1nc(Nc2cnc3ccccc3c2P(C)(C)=O)c2cc[nH]c2n1 [Example 89, (3-((2-((2-methoxy-5-(1-methyl-1H-pyrazol-4-yl)-4-(4-methylpiperazin-1-yl)phenyl)amino)-7H-pyrrolo[2,3-d]pyrimidin-4-yl)amino)quinolin-4-yl)dimethyl-phosphine oxide]
≤ 0.05 µM	> 0.1 µM	0.05 to 0.1 µM	C=CC(=O)Nc1cc(Nc2nc(Nc3ccc4nccnc4c3P(C)(C)=O)c3cc[nH]c3n2)c(OC)cc1N1CCN(C)CC1 [Example 73, N-(5-((4-((5-(dimethyl-phosphoryl)quinoxalin-6-yl)amino)-7H-pyrrolo[2,3-d]pyrimidin-2-yl)amino)-4-methoxy-2-(4-methylpiperazin-1-yl)phenyl) acrylamide]
≤ 0.05 µM	≤ 0.05 µM	> 0.1 µM	CN1CCN(c2c(-c3cnn(C)c3)cc(Nc3nc(Nc4ccc5nccnc5c4P(C)(C)=O)c4cc[nH]c4n3)c3c2CCO3)CC1 [Example 116, dimethyl (6-((2-((5-(1-methyl-1H-pyrazol-4-yl)-4-(4-methyl-piperazin-1-yl)-2,3-dihydrobenzo-furan-7-yl)amino)-7H-pyrrolo[2,3-d]pyrimidin-4-yl)amino)quinoxalin-5-yl)phosphine oxide]
≤ 0.05 µM	0.05 to 0.1 µM	> 0.1 µM	CN1CCN(C2CCN(c3cc(OCC(F)(F)F)c(Nc4nc(Nc5ccc6nccnc6c5P(C)(C)=O)c5cc[nH]c5n4)cc3-c3cnn(C)c3)CC2)CC1 [Example 4, dimethyl (6-((2-((5-(1-methyl-1H-pyrazol-4-yl)-4-(4-(4-methylpiperazin-1-yl)piperidin-1-yl)-2-(2,2,2-trifluoroethoxy)phenyl)amino)-7H-pyrrolo[2,3-d]pyrimidin-4-yl)amino)quinoxalin-5-yl) phosphine oxide]
≤ 0.05 µM	≤ 0.05 µM	> 0.1 µM	COc1nc(N2CCN(C)CC2)c(-c2cnn(C)c2)cc1Nc1nc(Nc2ccc3nccnc3c2P(C)(C)=O)c2cc[nH]c2n1 [Example 44, (6-((2-((2-methoxy-5-(1-methyl-1H-pyrazol-4-yl)-6-(4-methyl-piperazin-1-yl)pyridin-3-yl)amino)-7H-pyrrolo[2,3-d]pyrimidin-4-yl)amino)quinoxalin-5-yl)dimethyl-phosphine oxide]
≤ 0.05 µM	≤ 0.05 µM	> 0.1 µM	COc1cc(N2C[C@H]3COC[C@H]3C2)c(-c2cnn(C)c2)cc1Nc1nc(Nc2ccc3nccnc3c2P(C)(C)=O)c2cc[nH]c2n1 [Example 41, (6-((2-((2-methoxy-5-(1-methyl-1H-pyrazol-4-yl)-4-((3aR,6aS)-tetrahydro-1H-furo[3,4-c]pyrrole-5(3H)-yl)phenyl)amino)-7H-pyrrolo[2,3-d]pyrimidin-4-yl)amino)quinoxalin-5-yl)dimethyl-phosphine oxide]
≤ 0.05 µM	> 0.1 µM	> 0.1 µM	Cn1ncc(Nc2nc(Nc3ccc4nccnc4c3P(C)(C)=O)c3cc[nH]c3n2)c1Cl [Example 137, (6-((2-((5-chloro-1-methyl-1H-pyrazol-4-yl)amino)-7H-pyrrolo[2,3-d]pyrimidin-4-yl)amino)quinoxalin-5-yl)dimethyl-phosphine oxide]
≤ 0.05 µM	≤ 0.05 µM	> 0.1 µM	CN1CCN(C2CCN(c3c(-c4cnn(C)c4)cc(Nc4nc(Nc5ccc6nccnc6c5P(C)(C)=O)c5cc[nH]c5n4)c4c3CCO4)CC2)CC1 [Example 117, dimethyl (6-((2-((5-(1-methyl-1H-pyrazol-4-yl)-4-(4-(4-methylpiperazin-1-yl)piperidin-1-yl)-2,3-dihydrobenzo-furan-7-yl)amino)-7H-pyrrolo[2,3-d]pyrimidin-4-yl)amino)quinoxalin-5-yl)phosphine oxide]
≤ 0.05 µM	≤ 0.05 µM	> 0.1 µM	COc1cc(N2CCN(CC3(F)CC3)CC2)c(-c2cnn(C)c2)cc1Nc1nc(Nc2ccc3nccnc3c2P(C)(C)=O)c2cc[nH]c2n1 [Example 113, (6-((2-((4-(4-((1-fluorocyclo-propyl)methyl)piperazin-1-yl)-2-methoxy-5-(1-methyl-1H-pyrazol-4-yl)phenyl)amino)-7H-pyrrolo[2,3-d]pyrimidin-4-yl)amino)quinoxalin-5-yl)dimethyl-phosphine oxide]
≤ 0.05 µM	> 0.1 µM	> 0.1 µM	COc1cc(N2CCN(C)CC2)c(-c2ccncc2)cc1Nc1nc(Nc2ccc3nccnc3c2P(C)(C)=O)c2cc[nH]c2n1 [Example 70, (6-((2-((2-methoxy-4-(4-methylpiperazin-1-yl)-5-(pyridin-4-yl)phenyl)amino)-7H-pyrrolo[2,3-d]pyrimidin-4-yl)amino)quinoxalin-5-yl)dimethyl-phosphine oxide]
≤ 0.05 µM	≤ 0.05 µM	0.05 to 0.1 µM	COc1cc(N2CCN3CCCC[C@@H]3C2)c(-c2cnn(C)c2)cc1Nc1nc(Nc2ccc3nccnc3c2P(C)(C)=O)c2cc[nH]c2n1 [Example 43, (R)-(6-((2-((2-methoxy-5-(1-methyl-1H-pyrazol-4-yl)-4-(octahydro-2H-pyrido[1,2-alpyrazin)-2-yl)phenyl)amino)-7H-pyrrolo[2,3-d]pyrimidin-4-yl)amino)quinoxalin-5-yl)dimethyl-phosphine oxide]
